Test results as given in patent US20200080053A1, “USE OF PEPTIDE COMPOUNDS FOR PROMOTING SURVIVAL, GROWTH AND CELL DIFFERENTIATION” (Axoltis Pharma, priority 2016, published 2020).
“Also recorded” adds a separate entry of the source.

Key:
Type in all cases: cell-based
[1] = test system: human mesenchymal stem cells (hMSC); experiment: Neural differentiation of hMSCs: gene expression by real-time PCR
Procedure: (§1) To investigate the neural differentiation capacity of the peptides, 25 cm^2 flasks and 12-wells culture plates were coated with sterile aqueous solutions of either NX210 or NS640 at a concentration of 80 μg/cm^2. Coatings were carried out at 37° C. and 5% CO2 over-night prior to cell plating.
On Day 0 (D0), hMSC were seeded at a concentration of 3,000 cells/cm^2 in pre-coated 25 cm^2 flasks or 12-well culture plates in complete medium and culture was placed at 37° C. in a humid environment and under 5% CO2. After 24h, medium was changed and replaced by different combinations of media containing either: MEMalpha—bFGF 12.5 ng/mL—FBS 2%—P/S 0.1%; MEMalpha—bFGF 12.5 ng/mL—FBS 10%—P/S 0.1%; MEMalpha—FBS 2%—P/S 0.1% (control condition); MEMalpha—FBS 10%—P/S 0.1% (control condition). The cells were placed at 37° C. in a humid environment and under 5% CO2, and medium was changed twice a week. On Day 8, medium was replaced by medium containing ATRA in the place of bFGF and thus was changed with: MEMalpha—ATRA […]—FBS 2%—P/S 0.1%; MEMalpha—ATRA 20 μM—FBS 10%—P/S 0.1%; MEMalpha—FBS 2%—P/S 0.1% (control condition); MEMalpha—FBS 10%—P/S 0.1% (control condition). The cells were placed at 37° C. in a humid environment and under 5% CO2. Medium was changed twice a week. […]
Total RNA was extracted using RNAeasy total purification kit following instructions of the manufacturer (Qiagen). cDNA were generated using a High-Capacity cDNA Reverse Transcription kit (Applied Biosystems) as described by the manufacturer.
The expression levels of genes (GFAP, Musashi 1, Nestin, Beta3-Tubuline, MAP-2 and GAPDH) were analyzed by real-time PCR using TaqMan gene Expression Master Mix (Applied Biosystems) on the Applied Biosystems 7900 Real time PCR system (Life technologies). Samples were analyzed in triplicates. Data were normalized using the GAPDH gene as an internal control and relative quantification (RQ) of the genes in a sample was determined according to the equation 2^−Δct.

[2] = test system: 129S v/J embryonic stem cells (ESCs); experiment: Early differentiation of ESCs on gelatin without LIF and serum, nestin/MAP2 immunocytochemistry
Procedure: 129S v/J embryonic stem cells (ESCs) were seeded at a concentration of 0.7×10^6 cells in 35 mm diameter Petri dishes covered with a gelatin substrate.
The culture medium used was the Glasgow's minimal essential medium (G-MEM) supplemented with N2 supplement.
To enable differentiation of ESCs into neuroepithelial progenitors, the culture medium was deprived of LIF (Leukemia Inhibitory factor) because LIF is a key factor of the self-renewal of ESCs.
The various tests were carried out in absence of serum because serum limits the possibility to specifically orientate the differentiation and it could hide, or at least reduce, the effects of the peptide compound of the invention.
ESCs were grown in the culture medium as defined above with addition of 0.5 mg/ml NX210 (SEQ ID NO: 6) at day 1, 3 and 5.
Then, cultures were fixed with 4% paraformaldehyde after 7 days of culture.
To analyze the differentiation of ESCs into neuroepithelial progenitors and into differentiated neurons, the various cell types were visualized by immunocytochemistry: • using a primary anti-nestin antibody (nestin=intermediate filament protein), specific of neuroepithelial progenitors, and • using a primary anti-MAP2 antibody (MAP2=microtubule associated protein 2), specific of dendrites, and thus specific of differentiated neurons.
The total number of cells was measured by labelling nuclei using bisbenzimide/Hoechst 33342, a fluorescent dye with an affinity for DNA that is commonly used to color nuclei in blue.

[3] = test system: human mesenchymal stem cells (hMSC); experiment: Neural differentiation of hMSCs: immunocytochemical analysis (Nestin, MAP-2); conditions: bFGF
Procedure: as §1
On Day 0 (D0), hMSC were seeded at a concentration of 3,000 cells/cm^2 in pre-coated 25 cm^2 flasks or 12-well culture plates in complete medium and culture was placed at 37° C. in a humid environment and under 5% CO2. After 24h, medium was changed and replaced by different combinations of media containing either: MEMalpha—bFGF 12.5 ng/mL—FBS 2%—P/S 0.1%; MEMalpha—bFGF 12.5 ng/mL—FBS 10%—P/S 0.1%; MEMalpha—FBS 2%—P/S 0.1% (control condition); MEMalpha—FBS 10%—P/S 0.1% (control condition). The cells were placed at 37° C. in a humid environment and under 5% CO2, and medium was changed twice a week. On Day 8, medium was replaced by medium containing ATRA in the place of bFGF and thus was changed with: MEMalpha—ATRA […]—FBS 2%—P/S 0.1%; MEMalpha—ATRA 20 μM—FBS 10%—P/S 0.1%; MEMalpha—FBS 2%—P/S 0.1% (control condition); MEMalpha—FBS 10%—P/S 0.1% (control condition). The cells were placed at 37° C. in a humid environment and under 5% CO2. Medium was changed twice a week. On Day 15 (D15), cells were harvested by trypsinization for mRNA extraction or fixed immunocytochemical analysis.
Assessment of differentiation was performed by gene expression after extraction of mRNA at various time point (DO, D1, D8 and D15), and immunocytochemical analysis performed at the end of the culture period (D15).
Immunocytochemical analyses were carried out on cells fixed in 4% paraformaldehyde and using standard protocols. After blocking with Triton 1×0.1%/BSA 5% during 30 min, cells were incubated with antibodies directed against Nestin (Millipore) or MAP-2 (Sigma) overnight at +4° C. After washing, appropriate FITC or Cyandidine-5 labelled secondary antibody are added. Nuclei were counterstained with Hoescht 33258 (Sigma). Obervations were performed using Leica TCS LSI system.

[4] = 2% FBS, with or without peptide coating (FIG. 8)

## W-S-G-W-S-S-C-S-R-S-C-G (WSGWSSCSRSCG) [NX210]
[1]; bFGF then ATRA, 2% FBS, peptide coating 80 μg/cm2
  effect of peptide coating on the increase in Nestin, βIII-Tubulin and MAP-2 gene expression: does not modify this increase
[1]; bFGF then ATRA, 10% FBS, peptide coating, vs ×0.75 without peptide (FIG. 5)
  MAP-2 expression: 1.21 ×
[1]; bFGF then ATRA, 10% FBS, peptide coating, vs ×1.2 without peptide (FIG. 5)
  Nestin expression: 2 ×
[1]; patient no 1, day 5, bFGF 10% without ATRA (FIG. 6)
  Nestin expression: 2 ×
[1]; patient no 2, D5, with bFGF (FIG. 7)
  MAP-2 expression: increased
[1]; patient no 2, after 5 days of culture, with bFGF (FIG. 7)
  βIII-Tubuline expression: maximized
[1]; patient no 2, bFGF 10% without ATRA, with or without coating (FIG. 7)
  Nestin expression: 1.95 ×
[2]; 0.5 mg/ml NX210, 7 days of culture on gelatin, compared to culture in the absence of NX210
  population of ESCs expressing the nestin protein: reduced; also recorded: few Nestin+cells
[2]; 0.5 mg/ml NX210, 7 days of culture, no MAP2 cells in the absence of NX210
  cells expressing the MAP2 protein (differentiated neurons): some cells expressing the MAP2 protein
[2]; 0.5 mg/ml NX210, in terms of kinetics
  orientation of ESCs to the neuronal differentiation pathway: induces a preferential orientation of ESCs to the neuronal differentiation pathway
[2]; after 5 days in the presence of 0.5 mg/ml NX210, compared to control culture
  MAP2+ cells in ESCs (FIG. 2): only observed in presence of NX210
[3]; [4]
  MAP-2 marker expression (immunocytochemistry staining): stronger staining
  Nestine marker expression (immunocytochemistry staining): stronger staining
[3]; 10% FBS, peptide coating (FIG. 8)
  MAP-2 protein presence: makes possible to observe MAP-2 protein presence
[3]; 10% FBS, with or without peptide coating, compared to the control condition (FIG. 8)
  Nestine expression (staining intensity): maximized
